Where a name gives a salt, the structure may show the parent alone. Read-outs that look alike come from different tables or passages of the source.
What was measured:
[1] = Cell culture media unbound percentage and stability by rapid equilibrium dialysis (Example C); type: in vitro ADME; settings: bovine, cell assay medium (RPMI-1640 with 10% fetal bovine serum), pH 7.4, rapid equilibrium dialysis, 4 hours at 37° C., read-out: Cell Culture Media Binding (% unbound)
In short: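 Compound spiked into cell culture medium at nominal 1 μM and dialysed against PBS (100 mM sodium phosphate + 150 mM NaCl, pH 7.4) by rapid equilibrium dialysis, triplicate, 4 h at 37° C with shaking. LC-MS/MS peak area ratios gave percent unbound (receiver/donor) and percent stability (240 min vs 0 min).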

[2] = target: T1, recombinant full-length WRN protein (1-1432) (Homo sapiens, UniProt Q14191); test: WRN unwinding activity, fluorogenic 384-well assay (Example A); type: biochemical; settings: WRN unwinding activity, 4 hr; Table 2; read-out: 4 hr UNW pIC50 (converted)
T1 construct: recombinant full-length WRN protein (1-1432)
In short: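 200 pM enzyme (2× stock) preincubated with compound 4 h at ambient temperature, then 200 μM ATP and 12 nM quenched TAMRA-labelled dsDNA (2× stocks) added for 60 min; EDTA-quenched. Buffer 25 mM Tris pH 8.0, 5 mM NaCl, 2 mM MgCl2. Fluorescence at 525/598 nm; pIC50 from four-parameter fit.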

[3] = test system: SW48 human colorectal cancer cells; test: Calculated free drug potency in SW48 cell assay, corrected with media free fraction (Example C); type: cell-based; settings: Homo sapiens, SW48, SW48 pCC50 corrected with measured free fraction in cell assay media
In short: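 Compound spiked at nominal 1 μM into cell assay medium and dialysed against PBS (100 mM sodium phosphate, 150 mM NaCl, pH 7.4) by rapid equilibrium dialysis, 4 h, 37 °C, shaking. Percent unbound from LC-MS/MS peak area ratios (240 min vs 0 min); cell assay concentrations corrected by this free fraction.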

[4] = test system: SW48 human colorectal cancer cells (MSI-H cancer cells); test: SW48 cell viability, CellTiter-Glo, 120 hours (Example B); settings: Homo sapiens
[5] = SW48, 120 h, read-out: SW48 pCC50, SW48 cell viability, 120 hours incubation (converted), Table 2
[6] = SW48, read-out: SW48 pCC50, measured potency from Example B, as repeated in Table 3 (converted)

T1 sequence (Q14191 whole entry): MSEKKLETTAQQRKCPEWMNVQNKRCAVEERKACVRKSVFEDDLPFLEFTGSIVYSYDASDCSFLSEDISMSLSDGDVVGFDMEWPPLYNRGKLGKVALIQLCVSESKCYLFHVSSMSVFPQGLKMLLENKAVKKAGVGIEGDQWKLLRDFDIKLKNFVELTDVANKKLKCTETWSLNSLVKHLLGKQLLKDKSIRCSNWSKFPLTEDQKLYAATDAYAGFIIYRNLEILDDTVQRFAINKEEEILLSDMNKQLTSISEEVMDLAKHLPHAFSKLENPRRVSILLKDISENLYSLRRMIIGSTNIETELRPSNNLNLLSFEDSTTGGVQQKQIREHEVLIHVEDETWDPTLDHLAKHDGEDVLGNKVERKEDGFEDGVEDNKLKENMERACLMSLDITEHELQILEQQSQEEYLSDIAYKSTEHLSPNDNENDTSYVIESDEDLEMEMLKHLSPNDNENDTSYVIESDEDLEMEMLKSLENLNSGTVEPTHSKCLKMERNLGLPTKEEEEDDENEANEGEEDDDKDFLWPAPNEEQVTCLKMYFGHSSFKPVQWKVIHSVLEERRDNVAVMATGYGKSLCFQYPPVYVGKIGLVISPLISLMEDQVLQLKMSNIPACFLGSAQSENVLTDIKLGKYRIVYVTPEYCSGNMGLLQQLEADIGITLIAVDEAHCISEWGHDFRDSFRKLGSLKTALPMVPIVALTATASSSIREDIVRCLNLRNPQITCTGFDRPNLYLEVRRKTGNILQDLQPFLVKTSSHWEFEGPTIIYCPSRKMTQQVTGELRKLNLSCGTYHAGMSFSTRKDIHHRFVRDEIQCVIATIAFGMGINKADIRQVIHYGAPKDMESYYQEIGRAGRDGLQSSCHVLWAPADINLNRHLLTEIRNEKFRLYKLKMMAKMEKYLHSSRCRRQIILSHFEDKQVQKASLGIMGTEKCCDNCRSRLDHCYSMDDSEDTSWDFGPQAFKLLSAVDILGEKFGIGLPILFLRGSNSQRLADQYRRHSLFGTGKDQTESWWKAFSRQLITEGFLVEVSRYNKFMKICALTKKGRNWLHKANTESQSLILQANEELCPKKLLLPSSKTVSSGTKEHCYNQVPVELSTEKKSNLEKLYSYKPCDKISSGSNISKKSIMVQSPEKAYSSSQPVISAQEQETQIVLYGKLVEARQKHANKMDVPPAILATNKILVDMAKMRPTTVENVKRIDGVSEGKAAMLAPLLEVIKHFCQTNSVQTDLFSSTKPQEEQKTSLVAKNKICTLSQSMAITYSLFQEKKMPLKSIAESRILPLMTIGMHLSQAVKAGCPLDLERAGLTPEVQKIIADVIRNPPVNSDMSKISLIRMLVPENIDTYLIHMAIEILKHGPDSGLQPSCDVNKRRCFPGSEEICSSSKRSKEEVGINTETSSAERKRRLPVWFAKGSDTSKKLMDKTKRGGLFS

Cc1nc2cc(S(=O)(=O)N(C)c3ccc([C@H]4C[C@H](NCC(F)(F)F)C[C@@H](C(=O)Nc5ccc(C(F)(F)F)cc5F)[C@@H]4C(=O)O)cc3)ccc2n1C (stereo in doubt) [Example 336, rel-(1R,2R,4S,6S)-2-((2-fluoro-4-(trifluoromethyl)phenyl)carbamoyl)-4-((2,2,2-trifluoroethyl)amino)-6-(4-((N,1,2-trimethyl-1H-benzo[d]imidazole)-5-sulfonamido)phenyl)cyclohexane-1-carboxylic acid]
fraction unbound at 4 h, 1 µM [1]: 0.0491 | IC50 [2]: 1.58 nM | CC50 [3]: 155 nM | CC50 [4, 5]: 3160 nM | CC50 [4, 6]: 3160 nM

Cc1nc2cc(S(=O)(=O)N(C)c3ccc([C@@H]4CCC[C@H](C(=O)Nc5ccc(C(F)(F)F)cn5)[C@H]4C(=O)O)cc3)ccc2n1C (relative stereo) [Example 168, rel-(1R,2R,6S)-2-((5-(trifluoromethyl)pyridin-2-yl)carbamoyl)-6-(4-((N,1,2-trimethyl-1H-benzo[d]imidazole)-5-sulfonamido)phenyl)cyclohexane-1-carboxylic acid]
fraction unbound at 4 h, 1 µM [1]: 0.0585 | IC50 [2]: 2.51 nM | CC50 [3]: 37.2 nM | CC50 [4, 5]: 631 nM | CC50 [4, 6]: 631 nM

Cc1nc2cc(S(=O)(=O)N(C)c3ccc([C@H]4C[C@@H](OCC5CC6CCC(C5)O6)C[C@@H](C(=O)Nc5ccc(C(F)(F)F)cc5F)[C@@H]4C(=O)O)cc3)ccc2n1C (single isomer, unassigned) [Example 360]
fraction unbound at 4 h, 1 µM [1]: 0.0942 | IC50 [2]: 5.01 nM | CC50 [3]: 5.89 nM | CC50 [4, 5]: 63.1 nM | CC50 [4, 6]: 63.1 nM

Cc1nc2cc(S(=O)(=O)N(C)c3ccc([C@@H]4CCC[C@H](COc5ccc(C(F)(F)F)cc5)[C@H]4C(=O)O)cc3)cc([C@@H]3CCCN(C)C3)c2n1C (single isomer, unassigned) [Example 211, formic acid salt]
fraction unbound at 4 h, 1 µM [1]: 0.0208 | IC50 [2]: 2 nM | CC50 [3]: 66.1 nM | CC50 [4, 5]: 3160 nM | CC50 [4, 6]: 3160 nM

Cc1nc2cc(S(=O)(=O)N(C)c3ccc([C@H]4CCC[C@@H](C(=O)Nc5ccc(C(F)(F)F)nc5)[C@@H]4C(=O)O)cc3)ccc2n1C [Example 172, (1R,2R,6S)-2-((6-(trifluoromethyl)pyridin-3-yl)carbamoyl)-6-(4-((N,1,2-trimethyl-1H-benzo[d]imidazole)-5-sulfonamido)phenyl)cyclohexane-1-carboxylic acid]
fraction unbound at 4 h, 1 µM [1]: 0.176 | IC50 [2]: 3.98 nM | CC50 [3]: 219 nM | CC50 [4, 5]: 1260 nM | CC50 [4, 6]: 1260 nM

Cc1nc2cc(S(=O)(=O)N(C)c3ccc([C@H]4C[C@H](N5CCCC(F)(F)C5)C[C@@H](C(=O)Nc5ccc(C(F)(F)F)cc5F)[C@@H]4C(=O)O)cc3)ccc2n1C (stereo in doubt) [Example 352, rel-(1R,2R,4S,6S)-4-(3,3-difluoropiperidin-1-yl)-2-((2-fluoro-4-(trifluoromethyl)phenyl)carbamoyl)-6-(4-((N,1,2-trimethyl-1H-benzo[d]imidazole)-5-sulfonamido)phenyl)cyclohexane-1-carboxylic acid]
fraction unbound at 4 h, 1 µM [1]: 0.028 | IC50 [2]: 3.98 nM | CC50 [3]: 112 nM | CC50 [4, 5]: 3980 nM | CC50 [4, 6]: 3980 nM

Cc1nc2cc(S(=O)(=O)N(C)c3ccc([C@H]4CCC[C@@H](C(=O)Nc5ccc(C(F)(F)F)cc5F)[C@@H]4C(=O)O)cc3)cc(CCN(C)C)c2n1C [Example 290, (1R,2S,6R)-2-(4-((7-(2-(dimethylamino)ethyl)-N,1,2-trimethyl-1H-benzo[d]imidazole)-5-sulfonamido)phenyl)-6-((2-fluoro-4-(trifluoromethyl)phenyl)carbamoyl)cyclohexane-1-carboxylic acid]
fraction unbound at 4 h, 1 µM [1]: 0.411 | IC50 [2]: 1.58 nM | CC50 [3]: 162 nM | CC50 [4, 5]: 398 nM | CC50 [4, 6]: 398 nM

Cc1nc2cc(S(=O)(=O)N(C)c3ccc([C@H]4C[C@@H](CS(C)(=O)=O)C[C@@H](C(=O)Nc5ccc(C(F)(F)F)cc5F)[C@@H]4C(=O)O)cc3)ccc2n1C (relative stereo) [Example 395, rel-(1R,2R,4R,6S)-2-((2-fluoro-4-(trifluoromethyl)phenyl)carbamoyl)-4-((methylsulfonyl)methyl)-6-(4-((N,1,2-trimethyl-1H-benzo[d]imidazole)-5-sulfonamido)phenyl)cyclohexane-1-carboxylic acid]
fraction unbound at 4 h, 1 µM [1]: 0.0875 | IC50 [2]: 1.58 nM | CC50 [3]: 87.1 nM | CC50 [4, 5]: 1000 nM | CC50 [4, 6]: 1000 nM

CC(=O)N1C[C@H](c2ccc(N(C)S(=O)(=O)c3ccc4c(c3)nc(C)n4C)cc2)[C@@H](C(=O)O)[C@H](C(=O)Nc2ccc(C(F)(F)F)cc2F)C1 (stereo in doubt) [Example 310, rel-(3R,4S,5R)-1-acetyl-3-((2-fluoro-4-(trifluoromethyl)phenyl)carbamoyl)-5-(4-((N,1,2-trimethyl-1H-benzo[d]imidazole)-5-sulfonamido)phenyl)piperidine-4-carboxylic acid]
fraction unbound at 4 h, 1 µM [1]: 0.273 | IC50 [2]: 1.58 nM | CC50 [3]: 437 nM | CC50 [4, 5]: 1580 nM | CC50 [4, 6]: 1580 nM

CN(C)CCc1nc2cc(S(=O)(=O)N(C)c3ccc([C@H]4CCC[C@@H](COc5ccc(C(F)(F)F)cc5)[C@@H]4C(=O)O)cc3)ccc2n1C [Example 275]
fraction unbound at 4 h, 1 µM [1]: 0.0083 | IC50 [2]: 2 nM | CC50 [3]: 41.7 nM | CC50 [4, 5]: 5010 nM | CC50 [4, 6]: 5010 nM

CN(c1ccc([C@H]2CCC[C@@H](C(=O)Nc3ccc(C(F)(F)F)cc3F)[C@@H]2C(=O)O)cc1)S(=O)(=O)c1ccc2c(c1)nc(C1CC1)n2C [Example 130, (1R,2S,6R)-2-(4-((2-cyclopropyl-N,1-dimethyl-1H-benzo[d]imidazole)-5-sulfonamido)phenyl)-6-((2-fluoro-4-(trifluoromethyl)phenyl)carbamoyl)cyclohexane-1-carboxylic acid]
fraction unbound at 4 h, 1 µM [1]: 0.0326 | IC50 [2]: 6.31 nM | CC50 [3]: 16.2 nM | CC50 [4, 5]: 501 nM | CC50 [4, 6]: 501 nM

CCO[C@@H]1C[C@H](c2ccc(N(C)S(=O)(=O)c3cnc4c(c3)nc(C)n4C)cc2)[C@@H](C(=O)O)[C@H](C(=O)Nc2ccc(C(F)(F)F)cc2F)C1 [Example 141, (1R,2R,4R,6S)-4-ethoxy-2-((2-fluoro-4-(trifluoromethyl)phenyl)carbamoyl)-6-(4-((N,2,3-trimethyl-3H-imidazo[4,5-b]pyridine)-6-sulfonamido)phenyl)cyclohexane-1-carboxylic acid]
fraction unbound at 4 h, 1 µM [1]: 0.112 | IC50 [2]: 3.16 nM | CC50 [3]: 70.8 nM | CC50 [4, 5]: 631 nM | CC50 [4, 6]: 631 nM

CC(=O)N(C)[C@H]1C[C@H](c2ccc(N(C)S(=O)(=O)c3ccc4c(c3)nc(C)n4C)cc2)[C@@H](C(=O)O)[C@H](C(=O)Nc2ccc(C(F)(F)F)cc2F)C1 (stereo in doubt) [Example 294, rel-(1R,2R,4S,6S)-2-((2-fluoro-4-(trifluoromethyl)phenyl)carbamoyl)-4-(N-methylacetamido)-6-(4-((N,1,2-trimethyl-1H-benzo[d]imidazole)-5-sulfonamido)phenyl)cyclohexane-1-carboxylic acid]
fraction unbound at 4 h, 1 µM [1]: 0.256 | IC50 [2]: 1.58 nM | CC50 [3]: 1620 nM | CC50 [4, 5]: 6310 nM | CC50 [4, 6]: 6310 nM

Cc1nnc(-c2cc([C@@H]3CCC[C@H](C(=O)Nc4ccc(C(F)(F)F)cc4F)[C@H]3C(=O)O)ccc2C(F)(F)F)o1 (single isomer, unassigned) [Example 245]
fraction unbound at 4 h, 1 µM [1]: 0.0971 | IC50 [2]: 7.94 nM | CC50 [3]: 776 nM | CC50 [4, 5]: 7940 nM | CC50 [4, 6]: 7940 nM

— US12662451B2, “Chemical compounds and uses thereof” (GLAXOSMITHKLINE INTELLECTUAL PROPERTY (NO.4) LIMITED, priority 2023, dated 2026)
